Values of other authors in patent US20030228369A1, “Process for conversion of high viscosity fluids and compositions thereof” (priority 2002, published 2003).

Settings: pH about 1.2

Structure (SMILES): CC(C)=CCC1=C(O)[C@](O)(CC=C(C)C)C(=O)C(C(=O)CC(C)C)=C1O [humulon]
- solubility at pH of the stomach / gastric fluid: not soluble
